Test results published in patent publication US9249076B2, “Recyclable extractant compositions” (BUTAMAX ADVANCED BIOFUELS LLC, priority 2012, dated 2016).
Values joined by “and” are separate entries in the source; they are usually repeats but may differ in a detail not shown here. Equal entries are not always repeated.

Key:
[1] = Oil Stability Index (OSI), antioxidant activity in COFA, AOCS Cd 12b-92; details: 110° C.
Procedure: Antioxidants were added on a weight percent basis to quantities of Corn Oil Fatty Acids (CAS No. 8001-30-7) and allowed to dissolve. […] COFA samples containing undissolved antioxidants were thoroughly mixed before withdrawing samples for analysis, to ensure the samples contained the specified weight percent of antioxidant.
Samples were run and the induction periods were determined according to AOCS method Cd 12b-92. All samples were tested at 110° C.

[2] = tested on: gram-negative and gram-positive bacteria (e.g., Lactobacillus); details: cited from earlier work
[3] = tested on: yeast (e.g., Saccharomyces); details: cited from earlier work

## Cc1c(C)c2c(c(C)c1O)CC[C@@](C)(CCC[C@H](C)CCC[C@H](C)CCCC(C)C)O2 [a-Tocopherol]
[1]; Distilled COFA, dose 0.2 Wt %
  Activity Index: 2.63
  OSI: 0.35 h
[1]; Distilled COFA, dose 1.1 Wt %
  Activity Index: 1.13
  OSI: 0.15 h
[1]; Distilled COFA, dose 2 Wt %
  Activity Index: 1.13
  OSI: 0.15 h

## c1ccc2c(c1)Nc1ccccc1S2 [Phenothiazine]
[1]; Crude COFA, dose 0.2034 Wt %
  Activity Index: 1.61
  OSI: 2.3 h

## CC(C)(C)c1cc(O)ccc1O [TBHQ, tertiary-butylhydroquinone]
[1]; Crude COFA, dose 0.0200 Wt %
  Activity Index: 1.35
  OSI: 1.75 h
[1]; Crude COFA, dose 0.2000 Wt %
  Activity Index: 2.81
  OSI: 3.65 h
[1]; Crude COFA, dose 0.2082 Wt %
  Activity Index: 2.60
  OSI: 3.7 h

## CCCCCCCCCCCCCCCC(=O)OC[C@H](O)[C@H]1OC(=O)C(O)=C1O [L-ascorbic acid 6-palmitate]
[1]; Crude COFA, dose 0.0100 Wt %
  OSI: 10.05 h
[1]; Crude COFA, dose 0.0200 Wt %
  OSI: 4.1 h
[1]; Crude COFA, dose 0.2000 Wt %
  OSI: 25.4 h and 29.8 h
[1]; Crude COFA, dose 0.2045 Wt %
  OSI: 26.4 h

## Cc1c(Cc2cc(C(C)(C)C)c(O)c(C(C)(C)C)c2)c(C)c(Cc2cc(C(C)(C)C)c(O)c(C(C)(C)C)c2)c(C)c1Cc1cc(C(C)(C)C)c(O)c(C(C)(C)C)c1 [Irganox 1330]
[1]; Crude COFA, dose 0.2046 Wt %
  Activity Index: 1.65
  OSI: 2.35 h

## O=C(O)c1cc(O)c(O)c(O)c1 [Gallic acid]
[1]; Crude COFA, dose 0.193 Wt %
  Activity Index: 1.70 and 1.25
  OSI: 7.9 h and 5.8 h

## CCOc1ccc2c(c1)C(C)=CC(C)(C)N2 [Ethoxyquin]
[1]; Crude COFA, dose 0.2074 Wt %
  Activity Index: 0.67
  OSI: 0.95 h

## Cc1cc(C(C)(C)C)c(O)c(C(C)(C)C)c1 [BHT, butylated hydroxytoluene]
[2]
  Antimicrobial activity: have antimicrobial activity
[3]
  Effect on yeast: does not affect yeast
[1]; Crude COFA, dose 0.0200 Wt %
  Activity Index: 1.42
  OSI: 1.85 h
[1]; Crude COFA, dose 0.1998 Wt %
  Activity Index: 2.19
  OSI: 2.85 h
[1]; Crude COFA, dose 0.2020 Wt %
  Activity Index: 2.11
  OSI: 3 h
[1]; Crude COFA, dose 0.205 Wt %
  Activity Index: 2.43 and 2.72
  OSI: 11.3 h and 12.65 h
[1]; Crude COFA, dose 0.2097 Wt %
  Activity Index: 2.07
  OSI: 2.95 h
[1]; Distilled COFA, dose 0.2 Wt %
  Activity Index: 17.63
  OSI: 2.35 h
[1]; Distilled COFA, dose 1.1 Wt %
  Activity Index: 52.50
  OSI: 7 h
[1]; Distilled COFA, dose 2 Wt %
  Activity Index: 66.00
  OSI: 8.8 h
